Source: ChEMBL document CHEMBL1201862, “PubChem BioAssay data set” (2004)
Calls of active or inactive are those of the source.

Tests used:
Cytochrome P450 2C9 = Cytochrome P450 2C9 (Homo sapiens, UniProt P11712); details: Potency
Paired box protein Pax-8 = Paired box protein Pax-8 (Homo sapiens, UniProt Q06710); test: PAX8 transcriptional activity inhibition in RMG-I – RMG-I cells, luciferase, cherry-pick, dose response (AID 687027); format: functional, cell-based;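 also: luciferase reporter driven by Pax8 target thyroperoxidase promoter measured by SteadyGlo luminescence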
Chain of Paired box protein Pax-8 (Q06710 whole entry): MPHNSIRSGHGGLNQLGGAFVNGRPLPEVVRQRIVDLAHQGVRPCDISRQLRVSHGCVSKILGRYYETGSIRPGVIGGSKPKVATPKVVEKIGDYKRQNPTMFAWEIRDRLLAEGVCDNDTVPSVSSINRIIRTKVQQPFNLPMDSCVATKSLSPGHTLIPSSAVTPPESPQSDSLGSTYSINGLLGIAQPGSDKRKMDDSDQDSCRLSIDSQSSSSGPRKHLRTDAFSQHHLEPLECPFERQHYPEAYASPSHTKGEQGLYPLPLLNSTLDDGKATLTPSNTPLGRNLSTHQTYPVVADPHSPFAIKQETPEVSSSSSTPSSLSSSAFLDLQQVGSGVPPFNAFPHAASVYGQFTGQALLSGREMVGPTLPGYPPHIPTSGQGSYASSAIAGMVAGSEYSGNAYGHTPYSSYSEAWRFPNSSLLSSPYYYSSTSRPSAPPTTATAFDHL

[1] = IGROV1 cell killing – plate reader, dry powder samples, PAX8 inhibitor project, dose response (AID 743043); format: functional, cell-based; details: IGROV-1
[2] = HGIII-sPLA2 enzyme inhibition potency – biochemical, QFRET, IC50, dose response (AID 743457);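 also: green fluorescence rise as the enzyme cleaves BODIPY PC-A2 in liposomes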
Estrogen receptor = target: T1, Estrogen receptor (Homo sapiens, UniProt P03372);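 also: potency for inhibiting coactivator peptide recruitment to the receptor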
T1 sequence (P03372 whole entry): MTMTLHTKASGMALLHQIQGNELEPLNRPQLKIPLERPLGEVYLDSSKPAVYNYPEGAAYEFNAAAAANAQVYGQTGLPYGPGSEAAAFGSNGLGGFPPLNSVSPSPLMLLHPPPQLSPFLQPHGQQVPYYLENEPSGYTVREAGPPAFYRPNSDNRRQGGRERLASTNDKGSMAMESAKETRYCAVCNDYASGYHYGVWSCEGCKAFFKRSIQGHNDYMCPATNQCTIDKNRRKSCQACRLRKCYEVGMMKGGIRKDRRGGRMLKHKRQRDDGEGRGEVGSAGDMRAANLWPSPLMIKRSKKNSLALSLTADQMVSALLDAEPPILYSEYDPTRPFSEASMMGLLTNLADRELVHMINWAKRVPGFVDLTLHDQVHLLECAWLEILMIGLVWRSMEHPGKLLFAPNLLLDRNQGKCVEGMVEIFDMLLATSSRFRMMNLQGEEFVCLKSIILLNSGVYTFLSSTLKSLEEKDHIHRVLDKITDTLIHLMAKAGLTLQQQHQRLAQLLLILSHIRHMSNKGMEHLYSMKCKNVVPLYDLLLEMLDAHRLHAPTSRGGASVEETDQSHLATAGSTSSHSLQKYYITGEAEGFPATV

Estrogen receptor beta = Estrogen receptor beta (Homo sapiens, UniProt Q92731);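 also: recombinant ER-beta bound to coactivator SRC1 peptide in presence of estradiol agonist; inhibitors block coactivator peptide binding and lower the FRET signal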
Chain of Estrogen receptor beta (Q92731 whole entry): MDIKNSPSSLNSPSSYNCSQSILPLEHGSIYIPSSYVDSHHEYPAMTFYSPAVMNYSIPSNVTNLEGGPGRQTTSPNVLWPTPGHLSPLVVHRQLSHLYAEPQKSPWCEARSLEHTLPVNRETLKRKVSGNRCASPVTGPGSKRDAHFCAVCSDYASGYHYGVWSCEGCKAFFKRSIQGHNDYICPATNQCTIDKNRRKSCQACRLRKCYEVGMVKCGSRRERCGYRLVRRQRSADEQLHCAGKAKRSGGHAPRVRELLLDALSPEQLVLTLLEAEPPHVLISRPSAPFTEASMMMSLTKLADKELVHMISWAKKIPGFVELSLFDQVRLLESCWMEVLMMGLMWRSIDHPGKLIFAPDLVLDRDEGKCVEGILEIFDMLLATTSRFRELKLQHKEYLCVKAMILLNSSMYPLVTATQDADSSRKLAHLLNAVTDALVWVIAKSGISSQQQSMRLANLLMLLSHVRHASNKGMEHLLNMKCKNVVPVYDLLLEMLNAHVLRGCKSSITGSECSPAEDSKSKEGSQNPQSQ

[3] = P. falciparum Dd2 growth inhibitors, dose response, SYBR Green, cherry-picked samples (AID 1159567); format: functional, cell-based
[4] = toxicity to human hepatoma HepG2 cells – cell-based, cherry-picked samples, cytotoxicity control, dose response (AID 1159577); format: functional
[5] = Luminescence Cell-Based Dose Retest to Confirm Inhibitors of Cancer Stem Cells. [Related pubchem assays (depositor defined):AID2717, AID2721]; format: functional; details: Homo sapiens
[6] = HIV-1 AD8 envelope cell-cell fusion blockers – cherry-pick, dose response (AID 652062); format: functional, cell-based;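 also: luciferase signal from cell-cell fusion driven by HIV-1 clade B AD8 Env; potency is for inhibitors of fusion seen as a drop in luminescence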
[7] = viability loss in CEM21 cells – cell-based, CellTiter-Glo luminescence, cherry-picked, cytotoxicity control for viral fusion inhibitor project, dose response (AID 652042); format: functional;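 also: potency for signal decrease meaning cytotoxicity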
[8] = blockers of HIV-1 ZM109 envelope-driven cell-cell fusion – HeLa effector, CEM target cells, luciferase, cherry-pick, dose response (AID 652058); format: functional, cell-based;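 also: luciferase signal from HIV-1 Env mediated cell-cell fusion of effector and target cells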
INS1 = test: INS-1E survival protection against cytokine death – cell-based, luminescence, retest, dose response (AID 449756); format: functional; details: Rattus norvegicus;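 also: cell death triggered by IL-1 beta plus TNF-alpha plus IFN-gamma mixture; protective hits raise ATP signal compared with cytokine alone wells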
[9] = blockers of HIV-1 envelope-mediated cell-cell fusion – cherry-pick, dose response (AID 652057); format: functional, cell-based
[10] = microbe, parasite or virus in culture; format: functional; details: Mycobacterium tuberculosis
[11] = target: T2, Oxysterols receptor LXR-beta (Homo sapiens, UniProt P55055); format: functional, cell-based;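 also: agonist activity at LXR measured by a cell-based luminescence readout across a dose range, run as a counterscreen for daf-12 agonists; potency for activation of Gal4-LXR reporter so compounds are agonists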
T2 sequence (P55055 whole entry): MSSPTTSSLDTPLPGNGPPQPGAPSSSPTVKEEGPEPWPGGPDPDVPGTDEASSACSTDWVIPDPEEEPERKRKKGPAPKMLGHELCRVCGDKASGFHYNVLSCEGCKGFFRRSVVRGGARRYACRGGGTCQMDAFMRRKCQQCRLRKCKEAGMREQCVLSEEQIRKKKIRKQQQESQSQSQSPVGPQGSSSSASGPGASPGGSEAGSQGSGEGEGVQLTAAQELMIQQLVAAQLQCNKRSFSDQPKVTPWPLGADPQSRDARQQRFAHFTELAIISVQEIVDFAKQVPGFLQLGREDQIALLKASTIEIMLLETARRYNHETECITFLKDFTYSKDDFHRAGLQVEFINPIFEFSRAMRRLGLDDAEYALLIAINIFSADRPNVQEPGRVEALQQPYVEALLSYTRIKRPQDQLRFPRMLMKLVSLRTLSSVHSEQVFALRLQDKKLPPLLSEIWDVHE

[12] = target: T2, Oxysterols receptor LXR-beta; test: LXR agonists, Gal4 luciferase reporter, dose response, counter-screen for ssDAF-12 agonist project, cell-based, luminescence, HEK293, S. stercoralis campaign (AID 720737); format: functional; details: read-out: IC50 (the source's name)
[13] = Luminescence-based cell-based high throughput dose response assay to identify activators of the DAF-12 from the parasite S. stercoralis (ssDAF-12).; format: functional

Chain of Cytochrome P450 2C9 (P11712 whole entry): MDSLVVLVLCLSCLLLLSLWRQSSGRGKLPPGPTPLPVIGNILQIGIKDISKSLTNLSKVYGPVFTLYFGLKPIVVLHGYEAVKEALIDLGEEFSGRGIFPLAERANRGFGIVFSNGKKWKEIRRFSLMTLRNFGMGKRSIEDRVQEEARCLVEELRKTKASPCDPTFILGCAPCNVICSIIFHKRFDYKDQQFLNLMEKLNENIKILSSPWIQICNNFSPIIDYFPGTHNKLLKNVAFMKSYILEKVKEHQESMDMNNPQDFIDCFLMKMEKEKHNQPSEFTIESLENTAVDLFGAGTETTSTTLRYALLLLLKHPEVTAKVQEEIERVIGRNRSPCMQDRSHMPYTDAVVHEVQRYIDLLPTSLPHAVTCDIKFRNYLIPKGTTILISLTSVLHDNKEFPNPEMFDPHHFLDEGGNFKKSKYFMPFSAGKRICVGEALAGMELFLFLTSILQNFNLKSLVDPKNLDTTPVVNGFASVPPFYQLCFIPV

CC(C)(C)c1cc(O)ccc1O [E319]
AC50 (Cytochrome P450 2C9): 7.94 µM (inconclusive)

C[C@@H]1CCCCO[C@H](CN(C)S(=O)(=O)c2cccs2)[C@@H](C)CN([C@@H](C)CO)C(=O)c2cc(NC(=O)Nc3ccc(C(F)(F)F)cc3)ccc2O1
AC50 (Paired box protein Pax-8): 3.48 µM (active)
AC50 [1]: 51.6 µM (active)

CCCCOc1ccc(CSC(=N)N)cc1Cl
IC50 [2]: > 122 µM (inactive)

Cc1cccc(NC(S)=NNC(=O)c2nn(C)cc2Cl)c1
IC50 [2]: > 122 µM (inactive)

O=C(c1cc(-c2ccco2)on1)N1CCCc2ccccc21
IC50 (Estrogen receptor): > 50 µM (not active)
IC50 (Estrogen receptor beta): > 50 µM (not active)

CCCC#Cc1ccc([C@H]2[C@@H](CO)N3CCCCN(C(=O)NC4CCCC4)C[C@H]23)cc1
AC50 [3]: 5.27 µM (active)
AC50 [4]: 12.6 µM (active)

CCOC(=O)[C@@H]1[C@H]2COc3cc(OC)ccc3[C@H]2N2C(=O)N(c3ccc(C(F)(F)F)cc3)C(=O)[C@]12C
AC50 [5]: 3.05 µM (active)
AC50 [6]: 25 µM (active)
AC50 [7]: 27.7 µM (active)
AC50 [8]: 38.8 µM (active)
AC50 (INS1): 7.32 µM (active)
AC50 [9]: 27.3 µM (active)
CC50 [10]: 13.2 µM (active)

Cc1c(C(=O)Nc2nccs2)oc2ccccc12
EC50 [11]: > 67.6 µM (inactive)
EC50 [12]: > 67.6 µM (inactive)
IC50 [13]: > 67.6 µM (inactive)

COc1ccc(S(=O)(=O)N2CC[C@@H]3[C@@H](CO)Nc4ccc(-c5ccc(C#N)cc5)cc4[C@@H]32)cc1
AC50 [3]: 6.28 µM (active)
AC50 [4]: 3.16 µM (active)
